According to paper PMC3037034 (ACS Medicinal Chemistry Letters, 2010):
pIC50: −log10 of the molar value.

Key:
human COX-2 = target: T1, human COX-2 (Homo sapiens, UniProt P35354); assay: purified COX-2 inhibition, TLC assay; assay type: biochemical; details: for COX-2 inhibitory activity (in words): purified COX-2
T1 sequence (P35354 18-604): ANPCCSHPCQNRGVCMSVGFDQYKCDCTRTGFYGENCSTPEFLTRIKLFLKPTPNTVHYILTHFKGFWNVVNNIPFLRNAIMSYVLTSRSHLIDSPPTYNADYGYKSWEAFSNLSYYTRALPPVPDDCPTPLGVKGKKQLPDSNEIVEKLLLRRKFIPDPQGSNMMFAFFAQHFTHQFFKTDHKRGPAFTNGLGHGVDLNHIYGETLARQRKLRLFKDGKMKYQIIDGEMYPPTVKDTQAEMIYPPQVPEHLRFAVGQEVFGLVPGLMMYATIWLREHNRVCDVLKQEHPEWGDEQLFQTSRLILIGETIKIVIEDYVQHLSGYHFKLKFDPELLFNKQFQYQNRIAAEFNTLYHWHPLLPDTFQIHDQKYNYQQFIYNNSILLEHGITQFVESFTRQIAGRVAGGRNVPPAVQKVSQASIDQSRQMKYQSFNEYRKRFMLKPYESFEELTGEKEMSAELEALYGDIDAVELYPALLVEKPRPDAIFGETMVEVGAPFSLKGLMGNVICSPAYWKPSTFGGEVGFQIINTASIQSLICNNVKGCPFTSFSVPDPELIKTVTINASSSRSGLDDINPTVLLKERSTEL

ovine COX-1 = target: T2, ovine COX-1 (Ovis aries, UniProt P05979); assay: purified COX-1 inhibition, TLC assay; assay type: biochemical; details: at concentrations up to 5 μM
T2 sequence (P05979 25-600): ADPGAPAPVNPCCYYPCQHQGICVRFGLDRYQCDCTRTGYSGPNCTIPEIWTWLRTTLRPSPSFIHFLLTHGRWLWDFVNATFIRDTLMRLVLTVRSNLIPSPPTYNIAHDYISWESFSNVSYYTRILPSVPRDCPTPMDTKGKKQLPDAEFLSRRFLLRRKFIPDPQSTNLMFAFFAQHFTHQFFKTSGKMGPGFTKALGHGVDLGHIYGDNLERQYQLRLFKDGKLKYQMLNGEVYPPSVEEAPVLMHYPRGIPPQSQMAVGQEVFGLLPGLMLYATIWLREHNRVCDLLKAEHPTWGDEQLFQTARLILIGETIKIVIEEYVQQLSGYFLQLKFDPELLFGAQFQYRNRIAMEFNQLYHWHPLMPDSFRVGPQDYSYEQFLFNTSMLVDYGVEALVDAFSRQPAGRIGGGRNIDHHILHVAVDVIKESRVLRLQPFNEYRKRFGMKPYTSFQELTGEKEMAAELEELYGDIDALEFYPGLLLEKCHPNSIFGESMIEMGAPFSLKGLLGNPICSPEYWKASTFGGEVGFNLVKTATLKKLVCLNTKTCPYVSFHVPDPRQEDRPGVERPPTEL

pIC50 (human COX-2)	COX-2 inhibitory activity (in words) (human COX-2)	inhibition of COX-1 (in words) (ovine COX-1)	SMILES
5.42			COC(=O)c1cc(-c2cccc(I)c2)n(-c2ccc(S(N)(=O)=O)cc2)n1 [compound 2]
6.25			COC(=O)c1cc(-c2ccc(I)cc2)n(-c2ccc(S(N)(=O)=O)cc2)n1 [compound 3]
6.59			CCOC(=O)c1cc(-c2ccc(I)cc2)n(-c2ccc(S(N)(=O)=O)cc2)n1 [compound 4]
< 5.40	inactive		NS(=O)(=O)c1ccc(-n2nc(CCC(=O)O)cc2-c2cccc(I)c2)cc1 [compound 5]
< 5.40	inactive		NS(=O)(=O)c1ccc(-n2nc(CCC(=O)O)cc2-c2ccc(I)cc2)cc1 [compound 6]
6.49			CS(=O)(=O)c1ccc(-n2nc(C(F)(F)F)cc2-c2cccc(I)c2)cc1 [compound 7]
7.30		without inhibition	CS(=O)(=O)c1ccc(-n2nc(C(F)(F)F)cc2-c2ccc(I)cc2)cc1 [compound 8, 5-(4-iodophenyl)-1-{4-(methylsulfonyl)phenyl}-3-(trifluoromethyl)-1H-pyrazole]
< 5.40			COC(=O)c1cc(-c2cccc(I)c2)n(-c2ccc(S(C)(=O)=O)cc2)n1 [compound 9]
5.52			COC(=O)c1cc(-c2ccc(I)cc2)n(-c2ccc(S(C)(=O)=O)cc2)n1 [compound 10]
